According to US20240116988A1, “ANTI-ROR1 MACROCYCLIC PEPTIDES AND COMPOSITIONS” (BRISTOL-MYERS SQUIBB COMPANY, priority 2022, published 2024):
Positions of bridges follow the written chain, without caps; N, C: chain ends. Non-standard residues stand in square brackets, D forms with d. Residues, ends and D or L forms follow the SMILES beside them. ξ: configuration not given here. NMeF = CN[C@@H](Cc1ccccc1)C(=O)O; Ile(3ξ) = CCC(C)[C@H](N)C(=O)O

Biological target: T1, human ROR1 (Homo sapiens, UniProt Q01973)
T1 construct: host or cells: HEK 293T cells, Tet-on system induced with doxycycline
T1 sequence (Q01973 30-937): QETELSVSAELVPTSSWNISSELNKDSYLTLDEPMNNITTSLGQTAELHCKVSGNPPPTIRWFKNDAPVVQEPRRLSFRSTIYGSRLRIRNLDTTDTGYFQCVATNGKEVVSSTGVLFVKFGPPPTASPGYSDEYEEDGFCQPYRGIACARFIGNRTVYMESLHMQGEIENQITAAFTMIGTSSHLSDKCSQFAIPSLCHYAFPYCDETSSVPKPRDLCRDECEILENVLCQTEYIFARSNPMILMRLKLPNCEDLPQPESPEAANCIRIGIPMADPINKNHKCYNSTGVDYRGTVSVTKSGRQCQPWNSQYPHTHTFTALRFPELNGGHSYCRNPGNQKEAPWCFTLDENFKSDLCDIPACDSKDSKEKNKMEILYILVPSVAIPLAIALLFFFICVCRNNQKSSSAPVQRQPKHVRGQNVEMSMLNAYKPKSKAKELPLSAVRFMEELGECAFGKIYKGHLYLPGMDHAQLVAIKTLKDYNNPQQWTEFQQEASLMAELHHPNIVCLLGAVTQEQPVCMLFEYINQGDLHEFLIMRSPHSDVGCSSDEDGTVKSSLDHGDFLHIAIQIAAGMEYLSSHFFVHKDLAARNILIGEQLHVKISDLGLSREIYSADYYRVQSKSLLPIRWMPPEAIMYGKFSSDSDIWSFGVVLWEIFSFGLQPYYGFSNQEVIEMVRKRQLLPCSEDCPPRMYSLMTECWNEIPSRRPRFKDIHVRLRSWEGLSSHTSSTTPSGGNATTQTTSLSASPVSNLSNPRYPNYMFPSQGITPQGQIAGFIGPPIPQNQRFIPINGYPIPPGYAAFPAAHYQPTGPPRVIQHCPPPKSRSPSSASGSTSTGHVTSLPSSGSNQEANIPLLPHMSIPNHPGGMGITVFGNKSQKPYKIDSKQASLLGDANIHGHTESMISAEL
Assay: ROR1 high content cell-based binding assay
Settings: read-out: ROR1 Binding 293T Human HC Cell Based Assay IC50
Experimental: ROR1 high content cell-based binding assay: Human embryonic kidney 293T cells (293T) expressing human ROR1 with Tet-on system by doxycycline were used (Arctic-488134) for the assessment of inhibition of the binding of fluorescently-labeled competing peptide (“Probe”) that specifically binds to human ROR1. […] Cryopreserved vials were thawed in a 37° C. water bath. Cells were washed in assay culture media [DMEM (Life Technologies Inc. Cat. […] Cat. No. 15140-122) and […] dox] and diluted 1.0×10^5 cells/mL. Cells were seeded into PDL-coated 384 well plates (BD Falcon Cat. No. 356663) at 2,000 cells/20 μL. Plates were allowed to incubate for 10 minutes at room temperature and then transferred to a 37° C./5% CO2 incubator for overnight incubation. The next day, 125 nL of the test compound was added using an ECHO followed by the addition of 5 μL/well of 5-FAM-labeled probe to cells at a final concentration of 30 nM. Sample were incubated for 1 hour at 37° C. for 1 hour, followed by 3 washes in […] of dPBS. Cells were fixed by adding 8% (w/v) formaldehyde (Sigma Cat. No. 252549), 20 μg/mL Hoechst (Thermo Scientific Cat. No. 62249) in PBS for 20 minutes at room temperature. The plates were washed 3 more times in dPBS and 15 μl of PBS was left in the wells following the last wash. The plates were sealed, and data was using obtained using a CellInsight NXT High Content Screening Platform IC903000 (Thermo Scientific).

IC50 | Structure (SMILES)
0.007 µM | CC(C)C[C@@H]1NC(=O)[C@H](Cc2ccc(O)cc2)NC(=O)[C@H](Cc2ccccc2)NC(=O)CSC[C@@H](C(N)=O)NC(=O)[C@H](CC(C)C)NC(=O)[C@H](Cc2ccccc2)N(C)C(=O)[C@H](Cc2ccc(O)cc2)NC(=O)[C@H](Cc2c[nH]c3ccccc23)NC(=O)CNC(=O)[C@H](CO)NC(=O)[C@H](Cc2ccc(O)cc2)NC(=O)[C@H](C(C)C)NC1=O [Example 1036] ({CH2CO}-FYLVYSGWY[NMeF]LC-NH2; thioether N-12)
0.251 µM | CC(C)C[C@@H]1NC(=O)[C@H](Cc2ccc(O)cc2)NC(=O)[C@H](C)NC(=O)CSC[C@@H](C(=O)NCC(N)=O)NC(=O)[C@H](CC(C)C)NC(=O)[C@H](Cc2ccccc2)N(C)C(=O)[C@H](Cc2ccc(O)cc2)NC(=O)[C@H](Cc2c[nH]c3ccccc23)NC(=O)CNC(=O)[C@H](CO)NC(=O)[C@H](Cc2ccc(O)cc2)NC(=O)[C@H](C(C)C)NC1=O [Example 1037] ({CH2CO}-AYLVYSGWY[NMeF]LCG-NH2; thioether N-12)
0.023 µM | CC(C)C[C@@H]1NC(=O)[C@H](C)NC(=O)[C@H](Cc2ccccc2)NC(=O)CSC[C@@H](C(=O)NCC(N)=O)NC(=O)[C@H](CC(C)C)NC(=O)[C@H](Cc2ccccc2)N(C)C(=O)[C@H](Cc2ccc(O)cc2)NC(=O)[C@H](Cc2c[nH]c3ccccc23)NC(=O)CNC(=O)[C@H](CO)NC(=O)[C@H](Cc2ccc(O)cc2)NC(=O)[C@H](C(C)C)NC1=O [Example 1038] ({CH2CO}-FALVYSGWY[NMeF]LCG-NH2; thioether N-12)
0.681 µM | CC(C)C[C@@H]1NC(=O)[C@H](Cc2ccc(O)cc2)NC(=O)[C@H](Cc2ccccc2)NC(=O)CSC[C@@H](C(=O)NCC(N)=O)NC(=O)[C@H](CC(C)C)NC(=O)[C@H](Cc2ccccc2)N(C)C(=O)[C@H](C)NC(=O)[C@H](Cc2c[nH]c3ccccc23)NC(=O)CNC(=O)[C@H](CO)NC(=O)[C@H](Cc2ccc(O)cc2)NC(=O)[C@H](C(C)C)NC1=O [Example 1039] ({CH2CO}-FYLVYSGWA[NMeF]LCG-NH2; thioether N-12)
0.017 µM | CC(C)C[C@@H]1NC(=O)[C@H](Cc2ccccc2)N(C)C(=O)[C@H](Cc2ccc(O)cc2)NC(=O)[C@H](Cc2c[nH]c3ccccc23)NC(=O)CNC(=O)[C@H](CO)NC(=O)[C@H](Cc2ccc(O)cc2)NC(=O)[C@H](C(C)C)NC(=O)[C@H](C)NC(=O)[C@H](Cc2ccc(O)cc2)NC(=O)[C@H](Cc2ccccc2)NC(=O)CSC[C@@H](C(=O)NCC(N)=O)NC1=O [Example 1040] ({CH2CO}-FYAVYSGWY[NMeF]LCG-NH2; thioether N-12)
0.012 µM | CC(C)C[C@@H]1NC(=O)[C@H](Cc2ccc(O)cc2)NC(=O)[C@H](Cc2ccccc2)NC(=O)CSC[C@@H](C(=O)NCC(N)=O)NC(=O)[C@H](CC(C)C)NC(=O)[C@H](Cc2ccccc2)N(C)C(=O)[C@H](Cc2ccc(O)cc2)NC(=O)[C@H](Cc2c[nH]c3ccccc23)NC(=O)CNC(=O)[C@H](CO)NC(=O)[C@H](Cc2ccc(O)cc2)NC(=O)[C@H](C)NC1=O [Example 1041] ({CH2CO}-FYLAYSGWY[NMeF]LCG-NH2; thioether N-12)
0.031 µM | CC(C)C[C@@H]1NC(=O)[C@H](Cc2ccc(O)cc2)NC(=O)[C@H](Cc2ccccc2)NC(=O)CSC[C@@H](C(=O)NCC(N)=O)NC(=O)[C@H](C)NC(=O)[C@H](Cc2ccccc2)N(C)C(=O)[C@H](Cc2ccc(O)cc2)NC(=O)[C@H](Cc2c[nH]c3ccccc23)NC(=O)CNC(=O)[C@H](CO)NC(=O)[C@H](Cc2ccc(O)cc2)NC(=O)[C@H](C(C)C)NC1=O [Example 1042] ({CH2CO}-FYLVYSGWY[NMeF]ACG-NH2; thioether N-12)
0.038 µM | CC(C)C[C@@H]1NC(=O)[C@H](Cc2ccc(O)cc2)NC(=O)[C@H](Cc2ccccc2)NC(=O)CSC[C@@H](C(=O)NCC(N)=O)NC(=O)[C@H](CC(C)C)NC(=O)[C@H](Cc2ccccc2)N(C)C(=O)[C@H](Cc2ccc(O)cc2)NC(=O)[C@H](Cc2c[nH]c3ccccc23)NC(=O)CNC(=O)[C@H](Cc2ccccc2)NC(=O)[C@H](Cc2ccc(O)cc2)NC(=O)[C@H](C(C)C)NC1=O [Example 1043] ({CH2CO}-FYLVYFGWY[NMeF]LCG-NH2; thioether N-12)
0.038 µM | CC(C)C[C@@H]1NC(=O)[C@H](Cc2ccc(O)cc2)NC(=O)[C@H](C(C)C)NC(=O)[C@H](CC(C)C)NC(=O)[C@H](Cc2ccc(O)cc2)NC(=O)[C@H](Cc2ccccc2)NC(=O)CSC[C@@H](C(=O)NCC(N)=O)NC(=O)[C@H](CC(C)C)NC(=O)[C@H](Cc2ccccc2)N(C)C(=O)[C@H](Cc2ccc(O)cc2)NC(=O)[C@H](Cc2c[nH]c3ccccc23)NC(=O)CNC1=O [Example 1044] ({CH2CO}-FYLVYLGWY[NMeF]LCG-NH2; thioether N-12)
0.009 µM | CC(C)C[C@@H]1NC(=O)[C@H](Cc2ccc(O)cc2)NC(=O)[C@H](Cc2ccccc2)NC(=O)CSC[C@@H](C(=O)NCC(N)=O)NC(=O)[C@H](CC(C)C)NC(=O)[C@H](Cc2ccccc2)N(C)C(=O)[C@H](Cc2ccc(O)cc2)NC(=O)[C@H](Cc2c[nH]c3ccccc23)NC(=O)CNC(=O)[C@H](Cc2ccc(O)cc2)NC(=O)[C@H](Cc2ccc(O)cc2)NC(=O)[C@H](C(C)C)NC1=O [Example 1045] ({CH2CO}-FYLVYYGWY[NMeF]LCG-NH2; thioether N-12)
0.006 µM | CC(C)C[C@@H]1NC(=O)[C@H](Cc2ccccc2)N(C)C(=O)[C@H](Cc2ccc(O)cc2)NC(=O)[C@H](Cc2c[nH]c3ccccc23)NC(=O)CNC(=O)[C@H](CO)NC(=O)[C@H](Cc2ccc(O)cc2)NC(=O)[C@H](C(C)C)NC(=O)[C@H](CCCNC(=N)N)NC(=O)[C@H](Cc2ccc(O)cc2)NC(=O)[C@H](Cc2ccccc2)NC(=O)CSC[C@@H](C(=O)NCC(N)=O)NC1=O [Example 1046] ({CH2CO}-FYRVYSGWY[NMeF]LCG-NH2; thioether N-12)
0.243 µM | CC(C)C[C@@H]1NC(=O)[C@H](Cc2ccc(O)cc2)NC(=O)[C@H](Cc2ccccc2)NC(=O)CSC[C@@H](C(=O)NCC(N)=O)NC(=O)[C@H](CC(C)C)NC(=O)[C@H](Cc2ccccc2)N(C)C(=O)[C@H](Cc2ccc(O)cc2)NC(=O)[C@H](Cc2c[nH]c3ccccc23)NC(=O)[C@H](CCCNC(=N)N)NC(=O)[C@H](CO)NC(=O)[C@H](Cc2ccc(O)cc2)NC(=O)[C@H](C(C)C)NC1=O [Example 1047] ({CH2CO}-FYLVYSRWY[NMeF]LCG-NH2; thioether N-12)
0.666 µM | CC(C)C[C@@H]1NC(=O)[C@H](Cc2ccc(O)cc2)NC(=O)[C@H](Cc2ccccc2)NC(=O)CSC[C@@H](C(=O)NCC(N)=O)NC(=O)[C@H](CC(C)C)NC(=O)[C@H](Cc2ccccc2)N(C)C(=O)[C@H](Cc2ccc(O)cc2)NC(=O)[C@H](Cc2c[nH]c3ccccc23)NC(=O)CNC(=O)[C@@H](C)NC(=O)[C@H](Cc2ccc(O)cc2)NC(=O)[C@H](C(C)C)NC1=O [Example 1048] ({CH2CO}-FYLVY[dA]GWY[NMeF]LCG-NH2; thioether N-12)
0.019 µM | CC[C@H](C)[C@@H]1NC(=O)[C@H](Cc2ccccc2)NC(=O)CSC[C@@H](C(N)=O)NC(=O)[C@H](C)NC(=O)[C@H](Cc2ccc(O)cc2)NC(=O)[C@H](Cc2ccc(O)cc2)NC(=O)[C@H](Cc2c[nH]c3ccccc23)NC(=O)CNC(=O)[C@H](Cc2ccc(O)cc2)NC(=O)[C@H](CCCNC(=N)N)NC(=O)[C@H](C(C)C)NC(=O)[C@H](Cc2c[nH]c3ccccc23)NC1=O [Example 1049] ({CH2CO}-FIWVRYGWYYAC-NH2; thioether N-12)
0.015 µM | CCC(C)[C@@H]1NC(=O)[C@H](Cc2c[nH]c3ccccc23)NC(=O)[C@H](Cc2ccccc2)NC(=O)[C@H](Cc2ccc(O)cc2)NC(=O)[C@@H](Cc2ccccc2)NC(=O)CSC[C@@H](C(N)=O)NC(=O)[C@H](C)NC(=O)[C@H](C(C)CC)NC(=O)[C@H](C(C)C)NC(=O)[C@H](Cc2c[nH]c3ccccc23)NC(=O)[C@H](CCCNC(=N)N)NC(=O)CNC1=O (some centres unmarked) [Example 1050] ({CH2CO}-[dF]YFW[Ile(3ξ)]GRWV[Ile(3ξ)]AC-NH2; thioether N-12)
0.172 µM | CC(C)C[C@@H]1NC(=O)[C@H](CCCNC(=N)N)NC(=O)[C@H](Cc2ccccc2)NC(=O)CSC[C@@H](C(=O)NCC(N)=O)NC(=O)[C@H](CC(C)C)NC(=O)[C@H](Cc2ccccc2)N(C)C(=O)[C@H](Cc2ccc(O)cc2)NC(=O)[C@H](Cc2c[nH]c3ccccc23)NC(=O)CNC(=O)[C@H](CO)NC(=O)[C@H](Cc2ccc(O)cc2)NC(=O)[C@H](C(C)C)NC1=O [Example 1051] ({CH2CO}-FRLVYSGWY[NMeF]LCG-NH2; thioether N-12)
0.367 µM | CC(C)C[C@@H]1NC(=O)[C@H](Cc2ccccc2)N(C)C(=O)[C@H](Cc2ccc(O)cc2)NC(=O)[C@H](Cc2c[nH]c3ccccc23)NC(=O)CNC(=O)[C@H](CO)NC(=O)[C@H](Cc2ccc(O)cc2)NC(=O)[C@H](C(C)C)NC(=O)[C@H](CCC(=O)O)NC(=O)[C@H](Cc2ccc(O)cc2)NC(=O)[C@H](Cc2ccccc2)NC(=O)CSC[C@@H](C(=O)NCC(N)=O)NC1=O [Example 1052] ({CH2CO}-FYEVYSGWY[NMeF]LCG-NH2; thioether N-12)
